Assay results: patent publication US20060069132A1, “Azolecarboxamide herbicides” (priority 2004, published 2006)

Assays:
[1] = tested on: yellow nutsedge; test: Test C pre-/postemergence herbicide test; format: in vivo, Cyperus esculentus; conditions: for Plant response rating, Nutsedge, Yellow / Plant response rating (0 = no effect, 100 = complete control), Nutsedge, Yellow: preemergence
Outline: (§1)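 Pre- and postemergence application, solvent/surfactant formulation; post at 1- to 4-leaf stage (2–18 cm). Greenhouse 12–14 d. Visual rating vs controls, 0 = no effect, 100 = complete control.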

[2] = tested on: corn; test: Test C pre-/postemergence herbicide test; format: in vivo, Zea mays; conditions: for Plant response rating, Corn / Plant response rating (0 = no effect, 100 = complete control), Corn: preemergence
Outline: as §1

[3] = tested on: common ragweed; test: Test C pre-/postemergence herbicide test; format: in vivo, Ambrosia elatior; set-up: key to Plant response rating, Ragweed: 0 = no effect, 100 = complete control; conditions: for Plant response rating, Ragweed / Plant response rating (0 = no effect, 100 = complete control), Ragweed: preemergence
Outline: as §1

[4] = tested on: velvetleaf; test: Test C pre-/postemergence herbicide test; format: in vivo, Abutilon theophrasti
Outline: as §1

[5] = tested on: large crabgrass; test: Test C pre-/postemergence herbicide test; format: in vivo, Digitaria sanguinalis
Outline: as §1

[6] = tested on: eastern black nightshade; test: Test C pre-/postemergence herbicide test; format: in vivo, Solanum ptycanthum; conditions: for Plant response rating, Nightshade / Plant response rating (0 = no effect, 100 = complete control), Nightshade: preemergence
Outline: as §1

[7] = tested on: cocklebur; test: Test C pre-/postemergence herbicide test; format: in vivo, Xanthium strumarium; conditions: for Plant response rating, Cocklebur / Plant response rating (0 = no effect, 100 = complete control), Cocklebur: preemergence
Outline: as §1

[8] = tested on: velvetleaf; test: Test A pre-/postemergence herbicide test; format: in vivo, Abutilon theophrasti
Outline: (§2)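 Visual injury rating on a 0–100 scale (0 no effect, 100 complete control) versus untreated controls, about ten days after treatment in greenhouse. Pre: directed soil spray onto seeded sandy loam. Post: spray to runoff on plants 2–10 cm tall at one- to two-leaf stage.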

[9] = tested on: redroot pigweed; test: Test A pre-/postemergence herbicide test; format: in vivo, Amaranthus retroflexus
Outline: as §2

[10] = tested on: barnyardgrass; test: Test A pre-/postemergence herbicide test; format: in vivo, Echinochloa crus-galli
Outline: as §2

[11] = 500 g ai/ha, scale 0 to 100 (0 no effect, 100 complete control), visual, 12 to 14 days
[12] = 62 g ai/ha, preemergence, scale 0 to 100
[13] = 500 g ai/ha, scale 0 to 100 (0 no effect, 100 complete control), visual, 12 to 14 days, preemergence
[14] = Postemergence, 500 g ai/ha, 0 to 100 scale, 0 no effect, 100 complete control
[15] = Postemergence, 2000 g ai/ha, 0 to 100 scale, 0 no effect, 100 complete control
[16] = Preemergence, 2000 g ai/ha, visual rating, 0 to 100 scale (0 no effect, 100 complete control)
[17] = preemergence, 500 g ai/ha, visual injury, 0 to 100 scale (0 no effect, 100 complete control)
[18] = 125 g ai/ha, scale 0 (no effect) to 100 (complete control), visual, 12 to 14 days
[19] = Preemergence, 500 g ai/ha, scale 0 to 100, 0 no effect, 100 complete control
[20] = 250 g ai/ha, scale 0 to 100 (0 no effect, 100 complete control), visual, 12 to 14 days
[21] = 125 g ai/ha, scale 0 (no effect) to 100 (complete control), visual, 12 to 14 days, preemergence

CCN(CC)C(=O)c1cccc(NC(=O)c2nn(C(C)(C)C)nc2C)c1 [Compound 418]
Plant response rating, Nutsedge, Yellow ([1]; 62 g ai/ha, scale 0 to 100): 0 | Plant response rating (0 = no effect, 100 = complete control), Nutsedge, Yellow ([1]; 125 g ai/ha): 0 | Plant response rating, Nutsedge, Yellow [1, 11]: 0 | Plant response rating, Corn ([2]; 62 g ai/ha, scale 0 to 100): 0 | Plant response rating (0 = no effect, 100 = complete control), Corn ([2]; 125 g ai/ha): 10 | Plant response rating, Corn ([2]; 250 g ai/ha, scale 0-100): 40 | Plant response rating, Corn [2, 11]: 80 | Plant response rating, Ragweed ([3]; 62 g ai/ha, scale 0 to 100): 50 | Plant response rating (0 = no effect, 100 = complete control), Ragweed ([3]; 125 g ai/ha): 70 | Plant response rating, Ragweed [3, 11]: 100 | Plant response rating, Velvetleaf [4, 12]: 90 | Plant response rating (0 = no effect, 100 = complete control), Velvetleaf ([4]; 125 g ai/ha, preemergence): 95 | Plant response rating, Velvetleaf [4, 13]: 100 | Plant response rating, Crabgrass, Large [5, 12]: 95 | Plant response rating (0 = no effect, 100 = complete control), Crabgrass, Large ([5]; 125 g ai/ha, preemergence): 100 | Plant response rating, Crabgrass, Large ([5]; 250 g ai/ha, scale 0-100, preemergence): 100 | Plant response rating, Crabgrass, Large [5, 13]: 100 | Plant response rating, Nightshade ([6]; 62 g ai/ha, scale 0 to 100): 95 | Plant response rating (0 = no effect, 100 = complete control), Nightshade ([6]; 125 g ai/ha): 95 | Plant response rating, Nightshade [6, 11]: 100 | Plant response rating, Cocklebur ([7]; 62 g ai/ha, scale 0 to 100): 0 | Plant response rating (0 = no effect, 100 = complete control), Cocklebur ([7]; 125 g ai/ha): 0 | Plant response rating, Cocklebur ([7]; 250 g ai/ha, scale 0-100): 30 | Plant response rating, Cocklebur [7, 11]: 35

CCN(CC)C(=O)c1cccc(NC(=O)c2cc(C(C)(C)C)nn2CC)n1 [Compound 145]
Velvetleaf plant response rating [8, 14]: 30 | Plant response rating, Velvetleaf [8, 15]: 55 | Velvetleaf plant response rating [8, 16]: 90 | Velvetleaf plant response rating [8, 17]: 75 | Plant response rating (0 = no effect, 100 = complete control), Nutsedge, Yellow ([1]; 62 g ai/ha): 0 | Plant response rating, Nutsedge, Yellow [1, 18]: 0 | Nutsedge, Yellow plant response rating [1, 19]: 0 | Plant response rating (0 = no effect, 100 = complete control), Corn ([2]; 62 g ai/ha): 0 | Plant response rating, Corn [2, 18]: 0 | Plant response rating, Corn [2, 20]: 5 | Corn plant response rating [2, 19]: 20 | Plant response rating (0 = no effect, 100 = complete control), Ragweed ([3]; 62 g ai/ha): 0 | Plant response rating, Ragweed [3, 18]: 0 | Ragweed plant response rating [3, 19]: 20 | Pigweed plant response rating [9, 14]: 90 | Plant response rating, Pigweed [9, 15]: 100 | Pigweed plant response rating [9, 16]: 100 | Pigweed plant response rating [9, 17]: 95 | Plant response rating, Velvetleaf [4, 21]: 20 | Velvetleaf plant response rating [4, 19]: 100 | Plant response rating, Crabgrass, Large [5, 21]: 50 | Plant response rating, Crabgrass, Large ([5]; 250 g ai/ha, scale 0 to 100 (0 no effect, 100 complete control), visual, 12 to 14 days, preemergence): 80 | Crabgrass, Large plant response rating [5, 19]: 80 | Plant response rating (0 = no effect, 100 = complete control), Nightshade ([6]; 62 g ai/ha): 60 | Plant response rating, Nightshade [6, 18]: 70 | Nightshade plant response rating [6, 19]: 90 | Barnyardgrass plant response rating [10, 14]: 40 | Plant response rating, Barnyardgrass [10, 15]: 100 | Barnyardgrass plant response rating ([10]; Preemergence, 500 g ai/ha, visual rating, 0 to 100 scale (0 no effect, 100 complete control)): 95 | Barnyardgrass plant response rating [10, 16]: 100 | Plant response rating (0 = no effect, 100 = complete control), Cocklebur ([7]; 62 g ai/ha): 0 | Plant response rating, Cocklebur [7, 18]: 0 | Plant response rating, Cocklebur [7, 20]: 0 | Cocklebur plant response rating [7, 19]: 0
